# US6617334B2, “Antidepressant azaheterocyclylmethyl derivatives of 7,8-dihydro-1,6,9-trioxa-3-aza-cyclopenta[a]naphthalene” (Wyeth, priority 2001, dated 2003)
# Structures can show the parent of a compound that is named as a salt.
# What was measured:
# human 5-HT1A receptors = biological target: T1, human 5-HT1A receptors (Homo sapiens, UniProt P08908); experiment: [3H] 8-OHDPAT displacement from the 5-HT1A receptor in transfected CHO cells; format: binding
# T1 construct: expressed in transfected cells; host or cells: CHO cells, stably transfected
# T1 sequence (P08908 1-422): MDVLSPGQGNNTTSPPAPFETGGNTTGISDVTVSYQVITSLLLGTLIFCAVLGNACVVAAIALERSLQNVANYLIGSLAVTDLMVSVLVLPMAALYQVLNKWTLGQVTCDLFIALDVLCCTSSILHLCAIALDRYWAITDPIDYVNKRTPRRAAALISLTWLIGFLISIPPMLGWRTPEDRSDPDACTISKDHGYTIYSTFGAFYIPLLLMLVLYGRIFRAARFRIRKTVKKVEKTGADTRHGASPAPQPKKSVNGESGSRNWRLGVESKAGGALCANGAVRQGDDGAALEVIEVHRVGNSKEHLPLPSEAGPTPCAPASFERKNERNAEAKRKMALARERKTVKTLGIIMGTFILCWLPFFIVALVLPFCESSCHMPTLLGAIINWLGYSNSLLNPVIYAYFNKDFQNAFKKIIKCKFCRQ
# From the text: High affinity for the serotonin 5-HT1A receptor was established by testing the claimed compound's ability to displace [^3H] 8-OHDPAT (dipropylaminotetralin) from the 5-HT1A serotonin receptor following a modification of the procedure of Hall et al., J. Neurochem. 44, 1685 (1985) which utilizes CHO cells stably transfected with human 5-HT1A receptors.
# serotonin transporter = biological target: T2, serotonin transporter (Rattus norvegicus, UniProt P31652); experiment: 3H-paroxetine displacement, affinity for the serotonin transporter; format: binding
# T2 construct: displace ^3H-paroxetine from male rat frontal cortical membranes; from tissue; host or cells: male rat frontal cortex membranes
# T2 sequence (P31652 whole entry): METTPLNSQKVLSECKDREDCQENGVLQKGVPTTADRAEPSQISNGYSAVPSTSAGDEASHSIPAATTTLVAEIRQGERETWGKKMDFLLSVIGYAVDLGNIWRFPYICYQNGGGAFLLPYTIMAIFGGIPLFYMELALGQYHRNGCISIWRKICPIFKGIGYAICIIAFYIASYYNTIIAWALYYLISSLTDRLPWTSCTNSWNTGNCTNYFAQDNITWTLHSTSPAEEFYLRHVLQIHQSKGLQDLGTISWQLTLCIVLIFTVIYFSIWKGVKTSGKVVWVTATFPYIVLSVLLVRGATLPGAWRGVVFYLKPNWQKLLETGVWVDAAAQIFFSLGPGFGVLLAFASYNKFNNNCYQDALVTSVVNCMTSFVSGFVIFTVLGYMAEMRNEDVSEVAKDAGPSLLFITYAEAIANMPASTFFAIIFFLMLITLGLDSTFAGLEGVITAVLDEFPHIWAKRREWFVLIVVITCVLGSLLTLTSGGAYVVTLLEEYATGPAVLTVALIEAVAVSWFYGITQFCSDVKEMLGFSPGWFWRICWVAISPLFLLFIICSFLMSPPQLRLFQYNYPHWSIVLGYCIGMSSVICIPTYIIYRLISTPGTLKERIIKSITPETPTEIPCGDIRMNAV
# [1] = biological target: T3, cloned human 5-HT1A receptors (Homo sapiens, UniProt P08908); experiment: 35S-GTPγS binding assay, antagonist activity at 5-HT1A receptors; format: biochemical; conditions: reversal of the effects of the standard agonist 8-OHDPAT; for IC50: read-out: 5-HT1A Function IC50
# T3 construct: expressed in transfected cells
# T3 sequence (P08908 1-422): T1 sequence (P08908 1-422)
# Experimental: Antagonist activity at 5-HT1A receptors was established by using a ^35S-GTPγS binding assay similar to that used by Lazareno and Birdsall (Br. J. Pharmacol. 109: 1120, 1993), in which the test compound's ability to affect the binding of ^35S-GTPγS to membranes containing cloned human 5-HT1A receptors was determined. Agonists produce an increase in binding whereas antagonists produce no increase but rather reverse the effects of the standard agonist 8-OHDPAT. The test compound's maximum inhibitory effect is represented as the Imax, while its potency is defined by the IC50.
Compound,Ki (human 5-HT1A receptors),Ki (serotonin transporter),melting point,5-HT1A Function Imax (maximum inhibitory effect) [1],IC50 [1]
"C1=C(c2c[nH]c3ccccc23)CCN(CC2COc3ccc4ncoc4c3O2)C1 (stereo not shown) [Example 1, 8-[4-(1H-Indol-3-yl)-3,6-dihydro-2H-pyridin-1-ylmethyl]-7,8-dihydro-1,6,9-trioxa-3-aza-cyclopenta[a]naphthalene]",10.3 nM,4 nM,223 to 224 °C,45,334 nM
"Cc1nc2ccc3c(c2o1)OC(CN1CC=C(c2c[nH]c4ccc(F)cc24)CC1)CO3 (stereo not shown) [Example 2, 8-[4-(5-Fluoro-1H-indol-3-yl)-3,6-dihydro-2H-pyridin-1-ylmethyl]-2-methyl-7,8-dihydro-1,6,9-trioxa-3-aza-cyclopenta[a]naphthalene]",5.43 nM,2.25 nM,95 °C,100,180 nM
Cc1nc2ccc3c(c2o1)OC(CN1CC=C(c2c[nH]c4c(F)cccc24)CC1)CO3 (stereo not shown),,,208 to 210 °C,,
Cc1nc2ccc3c(c2o1)OC(CN1CC=C(c2c[nH]c4cc(F)ccc24)CC1)CO3 (stereo not shown),,,188 to 190 °C,,
"Cc1nc2ccc3c(c2o1)OC(CN1CC=C(c2c[nH]c4ccc(C#N)cc24)CC1)CO3 (stereo not shown) (as salt: fumarate) (hydrate or solvate) [Example 4, 3-[1-(2-Methyl-7,8-dihydro-1,6,9-trioxa-3-aza-cyclopenta[a]naphthalen-8-ylmethyl)-1,2,3,6-tetrahydro-pyridin-4-yl]-1H-indole-5-carbonitrile]",,,119 °C,,
"Cc1nc2ccc3c(c2o1)OC(CN1CC=C(c2c[nH]c4ccccc24)CC1)CO3 (stereo not shown) [Example 3, 8-[4-(1H-Indol-3-yl)-3,6-dihydro-2H-pyridin-1-ylmethyl]-2-methyl-7,8-dihydro-1,6,9-trioxa-3-aza-cyclopenta[a]naphthalene]",7.56 nM,3.83 nM,196 °C,100,282 nM
"Cc1nc2ccc3c(c2o1)OC(CN1CC=C(c2c[nH]c4ccc(C#N)cc24)CC1)CO3 (stereo not shown) [Example 4, 3-[1-(2-Methyl-7,8-dihydro-1,6,9-trioxa-3-aza-cyclopenta[a]naphthalen-8-ylmethyl)-1,2,3,6-tetrahydro-pyridin-4-yl]-1H-indole-5-carbonitrile]",9.56 nM,1.68 nM,,100,115 nM
